Results as given in publication doi:10.1101/2025.01.31.635529v3 (biorxiv, 2025).

Molecular target: T1, PaAtg18 (Atg18) (Ogataea angusta, UniProt Q5QA94)
T1 sequence (Q5QA94 1-525): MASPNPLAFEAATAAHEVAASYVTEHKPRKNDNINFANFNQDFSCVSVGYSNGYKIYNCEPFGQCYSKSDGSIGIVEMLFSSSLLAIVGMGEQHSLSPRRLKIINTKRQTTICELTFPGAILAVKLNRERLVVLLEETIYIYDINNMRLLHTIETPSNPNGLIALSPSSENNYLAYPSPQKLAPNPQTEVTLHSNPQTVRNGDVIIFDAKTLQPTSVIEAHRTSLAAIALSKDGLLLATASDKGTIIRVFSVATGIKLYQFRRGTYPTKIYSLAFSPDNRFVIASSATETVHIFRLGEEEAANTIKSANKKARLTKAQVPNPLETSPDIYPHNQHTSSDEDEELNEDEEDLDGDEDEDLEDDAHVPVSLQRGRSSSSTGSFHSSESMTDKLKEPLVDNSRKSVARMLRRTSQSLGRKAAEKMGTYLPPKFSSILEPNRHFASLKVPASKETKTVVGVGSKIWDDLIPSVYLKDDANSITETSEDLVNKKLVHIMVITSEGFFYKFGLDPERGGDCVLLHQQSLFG
Assay: isothermal titration calorimetry
Assay type: binding

Kd	Structure (SMILES)
85.6 ± 23.5 µM	O=P(O)(O)O[C@H]1[C@H](O)[C@@H](O)[C@H](OP(=O)(O)O)[C@@H](OP(=O)(O)O)[C@H]1O [Ins(1,3,4)P3]
116 ± 14 µM	O=P(O)(O)O[C@@H]1[C@H](O)[C@H](O)[C@@H](OP(=O)(O)O)[C@H](OP(=O)(O)O)[C@H]1O [Ins(1,4,5)P3]
37.4 ± 1.3 µM	O=P(O)(O)O[C@H]1[C@H](O)[C@@H](OP(=O)(O)O)[C@H](O)[C@@H](OP(=O)(O)O)[C@H]1O [Ins(1,3,5)P3]
